Results from patent US20220041647A1, “ESTRA-1,3,5(10)-TRIENE COMPOUNDS CONDENSED IN POSITION 16(17) WITH A PYRAZOLE RING AS INHIBITORS OF 17-HSD1” (FORENDO PHARMA LTD, priority 2018, published 2022).

Experiments:
Type in all cases: biochemical
[1] = biological target: T1, recombinant human 17β-HSD1 (Homo sapiens, UniProt P14061); assay: Inhibition of recombinant human 17β-HSD1 (estrone to estradiol conversion, HPLC/radioactivity); details: compound 100 nM; 30 nM estrone, 1 mM NADPH, 30 min RT
T1 construct: made in house; host or cells: Sd9 (Sf9) insect cells, baculovirus (Bac to Bac Expression System)
T1 sequence (P14061 1-328): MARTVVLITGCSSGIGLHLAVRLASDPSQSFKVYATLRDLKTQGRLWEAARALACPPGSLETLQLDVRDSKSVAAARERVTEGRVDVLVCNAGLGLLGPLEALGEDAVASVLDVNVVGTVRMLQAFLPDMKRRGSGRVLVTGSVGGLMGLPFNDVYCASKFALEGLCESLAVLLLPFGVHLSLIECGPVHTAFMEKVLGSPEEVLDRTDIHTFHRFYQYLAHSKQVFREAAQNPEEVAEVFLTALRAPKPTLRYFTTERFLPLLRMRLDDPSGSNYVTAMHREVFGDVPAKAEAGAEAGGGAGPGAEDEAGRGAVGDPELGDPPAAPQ
Method: 17β-HSD1 production and isolation: Recombinant baculovirus was generated by the “Bac to Bac Expression System” (Invitrogen). Recombinant bacmid was transfected to Sd9 insect cells using “Cellfectin Reagent” (Invitrogen). 60 h later cells were harvested; the microsomal fraction was isolated as described by Puranen, T. J., Poutanen, M. H., Peltoketo, H. E., Vihko, P. T. and Vihko, R. K. (1994) Site-directed mutagenesis of the putative active site of human 17 β-hydroxysteroid dehydrogenase type 1. Biochem. J. 304: 289-293. Aliquots were stored frozen until determination of enzymatic activity.
Assay—Inhibition of recombinant human 17β-HSD1: Recombinant protein (1 μg/ml) was incubated in 20 mM KH2PO4 pH 7.4 with 30 nM estrone (including 800 000 cpm/ml of ^3H-estrone) and 1 mM NADPH for 30 min at RT, in the presence of the potential inhibitor at concentrations 1 μM or 0.1 μM. Inhibitor stock solutions were prepared in DMSO. Final concentration of DMSO was adjusted to 1% in all samples. The enzyme reaction was stopped by addition of 10% trichloroacetic acid (final concentration). Samples were centrifuged in a microtiter plate at 4000 rpm for 10 min. Supernatants were applied to reverse phase HPLC on a Waters Symmetry C18 column, equipped with a Waters Sentry Guard column. Isocratic HPLC runs were performed at RT at a flow rate of 1 ml/min in acetonitrile:water 48:52 as running solvent. Radioactivity was monitored in the eluate by a Scintillation Analyzer. Total radioactivity for estrone and estradiol were determined in each sample and percent conversion of estrone to estradiol was calculated according to the following formula:
% conversion=100×{(cpm estradiol in sample with inhibitor)/[(cpm estrone in sample with inhibitor)+(cpm estradiol in sample with inhibitor)]}/{[(cpm estradiol in sample without inhibitor)/[(cpm estrone in sample without inhibitor)+(cpm estradiol in sample without inhibitor)]}.
(§1) Percent inhibition was calculated followingly: % inhibition=100−% conversion.

[2] = biological target: T2, recombinant human 17β-HSD2 (Homo sapiens, UniProt P37059); assay: Inhibition of recombinant human 17β-HSD2 (estradiol to estrone conversion, HPLC/radioactivity); details: compound 1 μM; 50 nM estradiol, 1 mM NADH, 30 min RT
T2 construct: made in house; host or cells: Sd9 (Sf9) insect cells, baculovirus (Bac to Bac Expression System)
T2 sequence (P37059 1-387): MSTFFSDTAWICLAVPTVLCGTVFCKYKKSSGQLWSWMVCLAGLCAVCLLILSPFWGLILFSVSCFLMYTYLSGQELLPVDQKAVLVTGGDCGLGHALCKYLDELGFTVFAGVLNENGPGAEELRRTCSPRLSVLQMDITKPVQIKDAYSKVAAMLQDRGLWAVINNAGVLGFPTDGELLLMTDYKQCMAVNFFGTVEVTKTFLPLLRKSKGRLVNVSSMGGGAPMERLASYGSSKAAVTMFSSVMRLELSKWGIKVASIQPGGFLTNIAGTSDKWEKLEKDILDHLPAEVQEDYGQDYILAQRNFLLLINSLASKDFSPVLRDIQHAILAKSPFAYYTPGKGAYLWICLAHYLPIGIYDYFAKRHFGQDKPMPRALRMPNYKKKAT
Method: 17β-HSD2 production and isolation: Similarly to 173-HSD1 the Recombinant baculovirus was generated by the “Bac to Bac Expression System” (Invitrogen). Recombinant bacmid was transfected to Sd9 insect cells using “Cellfectin Reagent” (Invitrogen). 60 h later cells were harvested and supernatant were fractionated by the following protocol: • cells were dissolved into 40 ml of A-buffer (40 mM TRIS, pH8.0, 20% glycerol, 20 μM NAD, 0.4 mM PMSF, 150 mM NaCl, 0.5% dodecyl-β-maltoside+protease inhibitor cocktail) • cells were sonicated • lysate was incubated on ice for 15 min • lysate was centrifuged 5000 rpm 15 min, +4° C. • centrifugation of the supernatant 180 000 g 30 min, +4° C. • pellet was dissolved into 8 ml of A-buffer • not resuspended material was removed by centrifugation 5000 rpm 15 min, +4° C. • the clear supernatant was divided into 100 μl aliquots and were stored frozen until determination of enzymatic activity.
The amount of 173-HSD2 was analysed by immunoblotting and total protein concentration of each extract batch was determined.
Assay—Inhibition of recombinant human 17β-HSD2: Recombinant protein (4 μg/ml) was incubated in 20 mM KH2PO4 pH 8.5 with 50 nM estradiol (including 800 000 cpm/ml of ^3H-estradiol) and 1 mM NADH for 30 min at RT, in the presence of the potential inhibitor at concentrations 1 μM or 0.1 μM. Inhibitor stock solutions were prepared in DMSO. Final concentration of DMSO was adjusted to 1% in all samples. The enzyme reaction was stopped by addition of 10% trichloroacetic acid (final concentration). Samples were centrifuged in a microtiter plate at 4000 rpm for 10 min. Supernatants were applied to reverse phase HPLC on a Waters Symmetry C18 column, equipped with a Waters Sentry Guard column. Isocratic HPLC runs were performed at RT at a flow rate of1 ml/min in acetonitrile:water 48:52 as running solvent. Radioactivity was monitored in the eluate by a Scintillation Analyzer. Total radioactivity for estrone and estradiol were determined in each sample and percent conversion of estradiol to estrone was calculated according to the following formula:
% conversion=100×{(cpm estrone in sample with inhibitor)/[(cpm estradiol in sample with inhibitor)+(cpm estrone in sample with inhibitor)]}/{[(cpm estrone in sample without inhibitor)/[(cpm estradiol in sample without inhibitor)+(cpm estrone in sample without inhibitor)]}.
as §1

[3] = system: HSD1 enzyme that is expressed in rabbit placenta tissue; assay: Inhibition of E1 to E2 conversion in rabbit placenta tissue homogenate; details: compound 100 nM, 30 nM estrone, 1 mM β-NADPH, 30 min
Method: The assay is based on an enzymatic reaction where HSD1 enzyme that is expressed in rabbit placenta tissue converts its natural substance estrone (E1) to estradiol (E2) in the presence of a co-factor β-NADPH.
Homogenization of rabbit placenta tissue: Weight a piece of the frozen tissue into a Precellys ck28 bead tube. Add buffer solution (20 mM KH2PO4 with 1 mM EDTA, pH 7.4) in 1:2 ratio (e.g. 300 mg of tissue:600 μl reaction buffer solution). Insert the bead tubes to homogenizer and homogenize 2×30 s. 6000 rpm.
Centrifugated 5 min., 2600 rpm at +4° C. and collect supernatant. Aliquots of homogenate are stored in −80° C.
Assay—Inhibition of E1 to E2 conversion in rabbit placenta tissue: The reaction takes place in a buffer solution (20 mM KH2PO4 with 1 mM EDTA, pH 7,4), including appropriate amount of rabbit placenta homogenate, co-factor (1 mM β-NADPH), Substrate (30 nM estrone), labelled substrate as tracer (5 nM [^3H]-estrone), and the potential inhibitor at concentrations 1 μM or 0.1 μM. Inhibitor stock solutions were prepared in DMSO. Final concentration of DMSO was adjusted to 1% in all samples. During a 30-minute incubation part of the estrone is converted to estradiol. The reaction is stopped by lowering the pH to 1 with 10% trichloro acetic acid (TCA). The substrate and conversion products are analyzed by HPLC and a Scintillation counter analyzer. Total radioactivity for estrone and estradiol were determined in each sample and percent conversion of estrone to estradiol was calculated according to the following formula:
% conversion=100×{(cpm estradiol in sample with inhibitor)/[(cpm estrone in sample with inhibitor)+(cpm estradiol in sample with inhibitor)]}/{(cpm estradiol in sample without inhibitor)/[(cpm estrone in sample without inhibitor)+(cpm estradiol in sample without inhibitor)]}.
as §1

Structure (SMILES): Cc1nnc(NC(=O)CC[C@@H]2c3c[nH]nc3[C@@]3(C)CCC4c5cccc(F)c5CCC4C23)o1 (stereo partly drawn) [Compound 66, 3-((8aS,12S)-3-fluoro-8a-methyl-1,2,6b,7,8,8a,10,12,12a,12b-decahydronaphtho[2′,1′:4,5]indeno[1,2-c]pyrazol-12-yl)-N-(5-methyl-1,3,4-oxadiazol-2-yl)propanamide]
- inhibition at 0.1 µM [1]: 74%
- inhibition at 1 µM [2]: 3%
- Rabbit placenta inhibition % @100 nM [3]: 39%

Structure (SMILES): C[C@]12CCC3c4cccc(F)c4CCC3C1[C@H](CCC(=O)NN1CCCCC1)c1c[nH]nc12 (stereo partly drawn) [Compound 69, 3-((8aS,12S)-3-fluoro-8a-methyl-1,2,6b,7,8,8a,10,12,12a,12b-decahydronaphtho[2′,1′:4,5]indeno[1,2-c]pyrazol-12-yl)-N-(piperidin-1-yl)propanamide]
- inhibition at 0.1 µM [1]: 93%
- inhibition at 1 µM [2]: 1%
- Rabbit placenta inhibition % @100 nM [3]: 10%

Structure (SMILES): CN1CCC(N2CCN(C(=O)CC[C@@H]3c4c[nH]nc4[C@@]4(C)CCC5c6cccc(F)c6CCC5C34)CC2)CC1 (stereo partly drawn) [Compound 75, 3-((8aS,12S)-3-fluoro-8a-methyl-1,2,6b,7,8,8a,10,12,12a,12b-decahydronaphtho[2′,1′:4,5]indeno[1,2-c]pyrazol-12-yl)-1-(4-(1-methylpiperidin-4-yl)piperazin-1-yl)propan-1-one]
- inhibition at 0.1 µM [1]: 71%
- inhibition at 1 µM [2]: 2%
- Rabbit placenta inhibition % @100 nM [3]: 15%

Structure (SMILES): Cc1cc(NC(=O)CC[C@@H]2c3c[nH]nc3[C@@]3(C)CCC4c5cccc(F)c5CCC4C23)no1 (stereo partly drawn) [Compound 78, 3-((8aS,12S)-3-fluoro-8a-methyl-1,2,6b,7,8,8a,10,12,12a,12b-decahydronaphtho[2′,1′:4,5]indeno[1,2-c]pyrazol-12-yl)-N-(5-methylisoxazol-3-yl)propanamide]
- inhibition at 0.1 µM [1]: 87%
- inhibition at 1 µM [2]: 3%
- Rabbit placenta inhibition % @100 nM [3]: 39%

Structure (SMILES): C[C@]12CCC3c4cccc(F)c4CCC3C1[C@H](CCC(=O)Nc1nncs1)c1c[nH]nc12 (stereo partly drawn) [Compound 81, 3-((8aS,12S)-3-fluoro-8a-methyl-1,2,6b,7,8,8a,10,12,12a,12b-decahydronaphtho[2′,1′:4,5]indeno[1,2-c]pyrazol-12-yl)-N-(1,3,4-thiadiazol-2-yl)propanamide]
- inhibition at 0.1 µM [1]: 81%
- inhibition at 1 µM [2]: 3%
- Rabbit placenta inhibition % @100 nM [3]: 31%

Structure (SMILES): CC(C)(C)c1cc(NC(=O)CC[C@@H]2c3c[nH]nc3[C@@]3(C)CCC4c5ccc(F)cc5CCC4C23)no1 (stereo partly drawn) [Compound 102, N-(5-(tert-butyl)isoxazol-3-yl)-3-((8aS,12 S)-4-fluoro-8a-methyl-1,2,6b,7,8,8a,10,12,12a,12b-decahydronaphtho[2′,1′:4,5]indeno[1,2-c]pyrazol-12-yl)propanamide]
- inhibition at 0.1 µM [1]: 80%
- inhibition at 1 µM [2]: 8%
- Rabbit placenta inhibition % @100 nM [3]: 19%

Structure (SMILES): C[C@]12CCC3c4ccc(F)cc4CCC3C1[C@H](CCC(=O)Nc1cccc(F)n1)c1c[nH]nc12 (stereo partly drawn) [Compound 105, 3-((8aS,12S)-4-fluoro-8a-methyl-1,2,6b,7,8,8a,10,12,12a,12b-decahydronaphtho[2′,1′:4,5]indeno[1,2-c]pyrazol-12-yl)-N-(6-fluoropyridin-2-yl)propanamide]
- inhibition at 0.1 µM [1]: 82%
- inhibition at 1 µM [2]: 9%
- Rabbit placenta inhibition % @100 nM [3]: 28%

Structure (SMILES): COc1ccc(NC(=O)CC[C@@H]2c3c[nH]nc3[C@@]3(C)CCC4c5ccc(F)cc5CCC4C23)nn1 (stereo partly drawn) [Compound 108, 3-((8aS,12S)-4-fluoro-8a-methyl-1,2,6b,7,8,8a,10,12,12a,12b-decahydronaphtho[2′,1′:4,5]indeno[1,2-c]pyrazol-12-yl)-N-(6-methoxypyridazin-3-yl)propanamide]
- inhibition at 0.1 µM [1]: 56%
- inhibition at 1 µM [2]: -2%
- Rabbit placenta inhibition % @100 nM [3]: 45%

Structure (SMILES): Cc1ccc(NC(=O)CC[C@@H]2c3c[nH]nc3[C@@]3(C)CCC4c5ccc(F)cc5CCC4C23)nn1 (stereo partly drawn) [Compound 111, 3-((8aS,12S)-4-fluoro-8a-methyl-1,2,6b,7,8,8a,10,12,12a,12b-decahydronaphtho[2′,1′:4,5]indeno[1,2-c]pyrazol-12-yl)-N-(6-methylpyridazin-3-yl)propanamide]
- inhibition at 0.1 µM [1]: 48%
- inhibition at 1 µM [2]: 1%
- Rabbit placenta inhibition % @100 nM [3]: 55%

Structure (SMILES): C[C@]12CCC3c4ccc(F)cc4CCC3C1[C@H](CCC(=O)Nc1cccnn1)c1c[nH]nc12 (stereo partly drawn) [Compound 114, 3-((8aS,12S)-4-fluoro-8a-methyl-1,2,6b,7,8,8a,10,12,12a,12b-decahydronaphtho[2′,1′:4,5]indeno[1,2-c]pyrazol-12-yl)-N-(pyridazin-3-yl)propanamide]
- inhibition at 0.1 µM [1]: 53%
- inhibition at 1 µM [2]: -1%
- Rabbit placenta inhibition % @100 nM [3]: 43%
